Among the data in article PMC11331178 (Journal of Advanced Research, 2023) are Kd values, retold here.

This assay addresses T1, TFEB (Homo sapiens, UniProt P19484).
T1 sequence (P19484 1-476 limits assumed): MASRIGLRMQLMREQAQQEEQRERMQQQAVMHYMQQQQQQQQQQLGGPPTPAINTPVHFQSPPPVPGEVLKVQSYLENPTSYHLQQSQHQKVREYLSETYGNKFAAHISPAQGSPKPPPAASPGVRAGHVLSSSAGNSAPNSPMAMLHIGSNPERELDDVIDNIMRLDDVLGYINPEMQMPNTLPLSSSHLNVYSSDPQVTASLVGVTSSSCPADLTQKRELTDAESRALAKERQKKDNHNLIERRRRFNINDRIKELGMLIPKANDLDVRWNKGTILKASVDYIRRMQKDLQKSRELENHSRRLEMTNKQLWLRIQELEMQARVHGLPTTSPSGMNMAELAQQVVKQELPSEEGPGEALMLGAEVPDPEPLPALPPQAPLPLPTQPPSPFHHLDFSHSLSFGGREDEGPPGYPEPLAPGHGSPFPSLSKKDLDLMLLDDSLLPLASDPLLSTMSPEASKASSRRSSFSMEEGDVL
Description: SPR, Biacore S200, CM5 chip. Format: binding. Background: In SPR one partner is held on a chip, and binding of the other changes the refractive index at the surface.

One may read the Kd as the concentration at which binding is half-saturated. A low value points to a tighter complex. The compound `C=C[C@]1(C)CC[C@@H](C(=C)C)C[C@H]1C(=C)C` [β-ELE] showed a Kd of 83 µM.
